Results taken from patent publication US8680076B2, “Methods of treatment, improvement and prevention using haloaryl substituted aminopurines” (Signal Pharmaceuticals, LLC, priority 2010, dated 2014).
“Also recorded” adds a separate entry of the source.

Assays:
[1] = tested on: phosphorylation of the JNK target cJun in dermal SSc-fibroblasts; assay: Western Blot analysis of c-Jun phosphorylation in TGF-β/PDGF-stimulated cultured dermal fibroblasts; type: cell-based, human; conditions: pre-incubation with compound
Description: To analyze whether the JNK pathway was activated by TGF-β and PDGF, Western Blot analysis for c-Jun in cultured dermal fibroblasts was performed.
After rinsing twice with PBS, the dermal fibroblasts were trypsinized and lysed with Laemmli Buffer. Five μg of protein from each sample were separated by 10% SDS-PAGE and electrotransferred onto polyvinylidene difluoride (PVDF) membranes according to standard protocols (Distler J H, Jungel A, Kowal-Bielecka O, Michel B A, Gay R E, Sprott H, et al. Expression of interleukin-21 receptor in epidermis from patients with systemic sclerosis. Arthritis Rheum. 2005; 52(3):856-64). Immunoblots were incubated with monoclonal antibodies against c-Jun and phospho-c-Jun (Santa Cruz, Heidelberg, Germany) at a dilution of 1:200 overnight at 4° C. After incubation with horseradish peroxidase-conjugated rabbit anti-mouse antibodies (Dako, Hamburg, Germany) for 1 hour at a dilution of 1:2000, signals were detected with ECL Western Blotting Detection Reagents (Amersham Bioscience, Freiburg, Germany). For confirmation of equal loading of proteins, the amount of β-actin was determined using mouse anti-human β-actin antibodies (Sigma-Aldrich, Munich, Germany; dilution 1:10000).

[2] = tested on: DBA/2J mice, bleomycin-induced skin fibrosis; assay: Bleomycin-induced dermal fibrosis mouse model (preventive treatment); type: in vivo; conditions: for reduction of collagen content in lesional skin (hydroxyproline assay): compared to bleomycin-treated animals
Description: The selective JNK inhibitor Compound JNKi-1 was tested in a bleomycin-induced dermal fibrosis mouse model, which is considered to represent the early and inflammatory stages of systemic sclerosis (Akhmetshina A, Venalis P, Dees C, Busch N, Zwerina J, Schett G, Distler O, Distler J H, Treatment with imatinib prevents fibrosis in different preclinical models of systemic sclerosis and induces regression of established fibrosis, Arthritis Rheum. 2009; 60(1):219-24). […] In animal models it will similarly induce injury and fibrosis at the site of delivery.
Male and female DBA/2J mice were used. Mice were fed a standard diet with water ad libitum. The room temperature was kept constant at 22° C. with a humidity of 60%.
Compound JNKi-1 was dissolved in 0.5% carboxymethylcellulose (CMC)/0.25% Tween 80 in water. Bleomycin was dissolved in 0.9% sodium chloride (NaCl) at a concentration of 0.5 mg/mL in a total volume of 100 μL. The positive control compound Imatinib mesylate was dissolved in 0.9% NaCl at a concentration of 50 mg/kg/day in a total volume of 100 μL.
Two different dose levels of the JNK-inhibitor Compound JNKi-1 (50 mg/kg and 150 mg/kg, administered twice daily) were used to analyze the anti-fibrotic activity in a mouse model of bleomycin-induced skin fibrosis. […] DBA/2J mice (n=5/sex/group) were assigned to one of five treatment groups: • Control group: 0.5% CMC/0.25% Tween 80 in water orally (PO) twice daily (BID) and subcutaneous injections of 100 μL 0.9% NaCl. • Untreated bleomycin group: intradermal injection of bleomycin and 0.5% CMC/0.25% Tween 80 in water orally BID. • 50 mg/kg Compound JNKi-1: intradermal injection of bleomycin and Compound JNKi-1 orally BID. • 150 mg/kg Compound JNKi-1: intradermal injection of bleomycin and Compound JNKi-1 orally BID. • Positive control group: intradermal injection of bleomycin and imatinib 50 mg/kg/day administered intraperitoneally (IP).
Localized dermal fibrosis was induced by injection of bleomycin every other day for 3 weeks in defined areas of the upper back. Compound JNKi-1 or imatinib was administrated starting from the first dose of bleomycin.
The dermal thickness was determined by staining with hematoxylin and eosin (H & E). The activated fibroblasts (myofibroblasts) at the fibrotic lesions were quantified by immunohistochemistry (IHC) for alpha smooth muscle actin (α-SMA). Collagen concentration in lesional skin was analyzed by hydroxyproline assay. Data are expressed as mean±standard error of the mean (SEM). SPSS17.0 software and the Mann-Whitney-U-test were used for statistical analyses. A p-value of less than 0.05 was considered statistically significant.

O[C@H]1CC[C@H](Nc2ncc3nc(Nc4c(F)cc(F)cc4F)n([C@H]4CCOC4)c3n2)CC1 [JNKi-1, 4-((9-((3S)-tetrahydro-3-furanyl)-8-((2,4,6-trifluorophenyl)amino)-9H-purin-2-yl)amino)-trans-cyclohexanol]
stimulatory effect of PDGF on c-Jun phosphorylation [1]: completely prevented
stimulatory effects of TGF-β and PDGF on the phosphorylation of c-Jun [1]: reduced the stimulatory effects
decrease of dermal thickness ([2]; 50 mg/kg orally BID, 3 weeks bleomycin, mean±SEM): 24%±5%
reduction of collagen content in lesional skin (hydroxyproline assay) ([2]; 50 mg/kg orally BID): 29%±11%
reduction of number of myofibroblasts (α-SMA IHC) ([2]; 50 mg/kg orally BID, mean±SEM): 80%±10%
reduction of collagen content in lesional skin (hydroxyproline assay) ([2]; 150 mg/kg orally BID): 47%±9%
reduction of number of myofibroblasts (α-SMA IHC) ([2]; 150 mg/kg orally BID, mean±SEM): 101%±9%
collagen content in lesional skin (in words) ([2]; 50 and 150 mg/kg orally BID): reduced dose-dependently
dermal thickness / development of fibrosis (in words) ([2]; 50 and 150 mg/kg orally BID): decreased dose-dependently; also recorded: reduced dose dependently; also recorded: significantly ameliorated; also recorded: dose-dependently inhibited dermal thickness
myofibroblasts in lesional skin (in words) ([2]; 50 and 150 mg/kg orally BID): significantly decreased; also recorded: completely prevented
